Numbers after ± are expanded uncertainties.
Experiment: mn = molality of the nth substance listed, in mol/kg
Conditions: 101 kPa, Liquid; for mass density: Vibrating tube method; for speed of sound: OPTIME 1.0 from OPTEL

A mass density (293.15 K, m1 = 0.01963) of 1108.73 ± 1.2 kg/m3, a mass density (293.15 K, m1 = 0.02663) of 1111.79 ± 1.2 kg/m3 and a mass density (293.15 K, m1 = 0.03818) of 1116.88 ± 1.2 kg/m3 were found for `O=S(=O)([O-])C(F)(F)F.O=S(=O)([O-])C(F)(F)F.O=S(=O)([O-])C(F)(F)F.[Gd+3]` [gadolinium (III) trifluoromethanesulfonate] + C[S+](C)[O-] in this work. For the same compound, the mass density (293.15 K, m1 = 0.04655) was 1120.6 ± 1.2 kg/m3, the mass density (293.15 K, m1 = 0.05549) was 1124.6 ± 1.2 kg/m3 and the mass density (293.15 K, m1 = 0.06913) was 1130.74 ± 1.2 kg/m3. The mass density (293.15 K, m1 = 0.08877) was 1139.72 ± 1.2 kg/m3, the mass density (293.15 K, m1 = 0.1071) was 1148.2 ± 1.2 kg/m3 and the mass density (293.15 K, m1 = 0.124) was 1156.16 ± 1.3 kg/m3. For the same compound, the mass density (293.15 K, m1 = 0.1457) was 1166.53 ± 1.3 kg/m3, the mass density (293.15 K, m1 = 0.1629) was 1174.88 ± 1.3 kg/m3 and the speed of sound (298.15 K, m1 = 0.01963) was 1481.8 ± 2 m/s. The speed of sound (298.15 K, m1 = 0.02663) was 1481 ± 2 m/s, the speed of sound (298.15 K, m1 = 0.03818) was 1479.6 ± 2 m/s and the speed of sound (298.15 K, m1 = 0.04655) was 1478.6 ± 2 m/s. It also gave a speed of sound (298.15 K, m1 = 0.05549) of 1477.5 ± 2 m/s, a speed of sound (298.15 K, m1 = 0.06913) of 1475.9 ± 2 m/s and a speed of sound (298.15 K, m1 = 0.08877) of 1473.6 ± 2 m/s. For the same compound, the speed of sound (298.15 K, m1 = 0.1071) was 1471.5 ± 2 m/s, the speed of sound (298.15 K, m1 = 0.124) was 1469.4 ± 2 m/s and the speed of sound (298.15 K, m1 = 0.1457) was 1467 ± 2 m/s. It also gave a speed of sound (298.15 K, m1 = 0.1629) of 1465 ± 2 m/s, a mass density (298.15 K, m1 = 0.01963) of 1103.71 ± 1.1 kg/m3 and a mass density (298.15 K, m1 = 0.02663) of 1106.78 ± 1.1 kg/m3. For the same compound, the mass density (298.15 K, m1 = 0.03818) was 1111.88 ± 1.2 kg/m3, the mass density (298.15 K, m1 = 0.04655) was 1115.6 ± 1.2 kg/m3 and the mass density (298.15 K, m1 = 0.05549) was 1119.6 ± 1.2 kg/m3. The mass density (298.15 K, m1 = 0.06913) was 1125.75 ± 1.2 kg/m3, the mass density (298.15 K, m1 = 0.08877) was 1134.74 ± 1.2 kg/m3 and the mass density (298.15 K, m1 = 0.1071) was 1143.23 ± 1.2 kg/m3. The mass density (298.15 K, m1 = 0.124) was 1151.2 ± 1.3 kg/m3, the mass density (298.15 K, m1 = 0.1457) was 1161.57 ± 1.3 kg/m3 and the mass density (298.15 K, m1 = 0.1629) was 1169.93 ± 1.3 kg/m3. For the same compound, the mass density (303.15 K, m1 = 0.01963) was 1098.7 ± 1.1 kg/m3, the mass density (303.15 K, m1 = 0.02663) was 1101.77 ± 1.1 kg/m3 and the mass density (303.15 K, m1 = 0.03818) was 1106.87 ± 1.1 kg/m3. The mass density (303.15 K, m1 = 0.04655) was 1110.6 ± 1.2 kg/m3, the mass density (303.15 K, m1 = 0.05549) was 1114.6 ± 1.2 kg/m3 and the mass density (303.15 K, m1 = 0.06913) was 1120.76 ± 1.2 kg/m3. The mass density (303.15 K, m1 = 0.08877) was 1129.76 ± 1.2 kg/m3, the mass density (303.15 K, m1 = 0.1071) was 1138.26 ± 1.2 kg/m3 and the mass density (303.15 K, m1 = 0.124) was 1146.24 ± 1.2 kg/m3. The mass density (303.15 K, m1 = 0.1457) was 1156.62 ± 1.3 kg/m3, the mass density (303.15 K, m1 = 0.1629) was 1165 ± 1.3 kg/m3 and the mass density (313.15 K, m1 = 0.01963) was 1088.67 ± 1.1 kg/m3. The mass density (313.15 K, m1 = 0.02663) was 1091.75 ± 1.1 kg/m3, the mass density (313.15 K, m1 = 0.03818) was 1096.87 ± 1.1 kg/m3 and the mass density (313.15 K, m1 = 0.04655) was 1100.61 ± 1.1 kg/m3. The mass density (313.15 K, m1 = 0.05549) was 1104.62 ± 1.1 kg/m3, the mass density (313.15 K, m1 = 0.06913) was 1110.8 ± 1.2 kg/m3 and the mass density (313.15 K, m1 = 0.08877) was 1119.82 ± 1.2 kg/m3. The mass density (313.15 K, m1 = 0.1071) was 1128.34 ± 1.2 kg/m3, the mass density (313.15 K, m1 = 0.124) was 1136.34 ± 1.2 kg/m3 and the mass density (313.15 K, m1 = 0.1457) was 1146.75 ± 1.2 kg/m3. For the same compound, the mass density (313.15 K, m1 = 0.1629) was 1155.14 ± 1.3 kg/m3, the mass density (323.15 K, m1 = 0.01963) was 1078.66 ± 1.1 kg/m3 and the mass density (323.15 K, m1 = 0.02663) was 1081.75 ± 1.1 kg/m3. The mass density (323.15 K, m1 = 0.03818) was 1086.88 ± 1.1 kg/m3, the mass density (323.15 K, m1 = 0.04655) was 1090.63 ± 1.1 kg/m3 and the mass density (323.15 K, m1 = 0.05549) was 1094.65 ± 1.1 kg/m3. For the same compound, the mass density (323.15 K, m1 = 0.06913) was 1100.84 ± 1.1 kg/m3, the mass density (323.15 K, m1 = 0.08877) was 1109.89 ± 1.2 kg/m3 and the mass density (323.15 K, m1 = 0.1071) was 1118.43 ± 1.2 kg/m3. It also gave a mass density (323.15 K, m1 = 0.124) of 1126.45 ± 1.2 kg/m3, a mass density (323.15 K, m1 = 0.1457) of 1136.88 ± 1.2 kg/m3 and a mass density (323.15 K, m1 = 0.1629) of 1145.31 ± 1.2 kg/m3. It also gave a mass density (333.15 K, m1 = 0.01963) of 1068.64 ± 1.1 kg/m3, a mass density (333.15 K, m1 = 0.02663) of 1071.74 ± 1.1 kg/m3 and a mass density (333.15 K, m1 = 0.03818) of 1076.89 ± 1.1 kg/m3. The mass density (333.15 K, m1 = 0.04655) was 1080.64 ± 1.1 kg/m3, the mass density (333.15 K, m1 = 0.05549) was 1084.68 ± 1.1 kg/m3 and the mass density (333.15 K, m1 = 0.06913) was 1090.89 ± 1.1 kg/m3. The mass density (333.15 K, m1 = 0.08877) was 1099.96 ± 1.1 kg/m3, the mass density (333.15 K, m1 = 0.1071) was 1108.52 ± 1.2 kg/m3 and the mass density (333.15 K, m1 = 0.124) was 1116.58 ± 1.2 kg/m3. The mass density (333.15 K, m1 = 0.1457) was 1127.04 ± 1.2 kg/m3 and the mass density (333.15 K, m1 = 0.1629) was 1135.48 ± 1.2 kg/m3.

Source: the NIST ThermoML archive (doi:10.1016/j.jct.2012.06.020)
